This note sets out measurements from PMC3714356 (The Journal of investigative dermatology, 2013).

Read-outs that look alike come from different tables or passages of the source.

As a reminder, the EC50 is the concentration needed to bring the measured effect to its halfway point. Low readings indicate greater potency, high ones weaker potency.

The test system of data set [1] is Cyp1b1. Put plainly: HaCaT cells, CYP1B1 mRNA by Reverse Transcriptase Real-Time PCR. Format: cell-based, human. Particulars: 1 μM, 24h. In general terms: In qPCR the cycle at which signal appears reflects the starting amount.
The subject of data set [2] is Cyp1a1. Put plainly: HaCaT cells, CYP1A1 mRNA by Reverse Transcriptase Real-Time PCR. Conditions: for induction of CYP1A1 mRNA: 100 nM; for Cyp1a1 induction, time dependence: 24h compared to 3 and 6h.
The target of data set [3] is T1, AhR (Homo sapiens, UniProt P35869).
T1 sequence (P35869 11-848): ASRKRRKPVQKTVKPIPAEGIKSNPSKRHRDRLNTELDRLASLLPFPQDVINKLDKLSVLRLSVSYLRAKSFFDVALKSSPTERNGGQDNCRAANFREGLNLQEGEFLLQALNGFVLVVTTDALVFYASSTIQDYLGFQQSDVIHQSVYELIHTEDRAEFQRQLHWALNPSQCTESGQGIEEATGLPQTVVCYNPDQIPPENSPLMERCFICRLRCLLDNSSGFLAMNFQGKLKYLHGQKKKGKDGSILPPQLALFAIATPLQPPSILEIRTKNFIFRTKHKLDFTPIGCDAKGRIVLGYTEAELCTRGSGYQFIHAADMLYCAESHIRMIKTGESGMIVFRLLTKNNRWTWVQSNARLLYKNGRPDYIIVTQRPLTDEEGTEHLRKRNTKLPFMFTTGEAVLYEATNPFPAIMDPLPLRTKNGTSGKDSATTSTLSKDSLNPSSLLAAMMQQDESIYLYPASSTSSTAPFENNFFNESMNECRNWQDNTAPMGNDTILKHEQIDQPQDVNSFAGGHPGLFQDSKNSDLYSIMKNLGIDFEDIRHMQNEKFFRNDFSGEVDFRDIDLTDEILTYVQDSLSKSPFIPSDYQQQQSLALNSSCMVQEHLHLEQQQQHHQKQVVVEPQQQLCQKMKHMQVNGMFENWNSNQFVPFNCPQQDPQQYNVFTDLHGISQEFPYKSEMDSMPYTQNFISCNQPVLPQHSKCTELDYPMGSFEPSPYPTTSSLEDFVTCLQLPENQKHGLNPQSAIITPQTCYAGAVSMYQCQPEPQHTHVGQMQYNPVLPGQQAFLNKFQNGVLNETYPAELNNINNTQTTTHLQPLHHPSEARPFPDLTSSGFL
Put plainly: cell-based.

The subject of data set [4] is Cyp1a1. Conditions: human.
Data set [5] addresses T1, AhR.
Setting [6] is: 6 hours of incubation, HG2L7.5c1 cells.

Regarding `O=Cc1c2[nH]c3ccccc3c2cc2[nH]c3ccccc3c12` [FICZ, 6-formylindolo[3,2-b]carbazole], in data set [1], the “Cyp1b1 induction compared with ICZ or indirubin” value was “significantly more potent”. Further, the “induction of CYP1A1 mRNA” value in data set [2] (24h) is given as “Statistically significant induction”. The “Cyp1a1 induction compared with ICZ or indirubin” value in data set [2] (1 μM, 24h) is given as “significantly more potent”. For the same compound, the “Cyp1a1 induction, time dependence” value in data set [2] was “higher at 24h”.
`Clc1cc2c(cc1Cl)Oc1cc(Cl)c(Cl)cc1O2` [TCDD, 2,3,7,8-tetrachlorodibenzo-p-dioxin, reference compound] yielded an EC50 in data set [3] of 0.523 nM.
Consider `O=C1Nc2ccccc2/C1=C1/Nc2ccccc2C1=O` [indirubin], for which the “Cyp1a1 induction, time dependence” value in data set [4] is “higher at 24h”.
Turning to `O=Cc1c(Cc2c[nH]c3ccccc23)[nH]c2ccccc12` [malassezin], in data set [5] (setting [6]), the “fold less potent than TCDD” value was 20 fold.
As for `O=C1c2ccccc2-n2c1nc1ccccc1c2=O` [tryptanthrin], the “fold less potent than TCDD” value in data set [5] is 200 fold. In addition, the EC50 in data set [3] was found to be 107 nM.
Regarding indolo[3,2-b]carbazole [ICZ], the “potency relative to the prototypical AhR agonist TCDD” value in data set [5] (setting [6]) was “equipotent”. For the same compound, the “induction of CYP1A1 mRNA” value in data set [2] (24h) was “Statistically significant induction”. Further, the “Cyp1a1 induction, time dependence” value in data set [2] is reported as “higher at 24h”.
